According to patent US5741643A, “Oligonucleotide clamps” (Lynx Therapeutics, Inc., priority 1995, dated 1998):

Assays:
[1] = system: target polynucleotide 5'-[…]-3' (pol and nef genes of HIV); test: Melting temperature of oligonucleotide clamp/target polynucleotide complex (260 nm absorption v. temperature curve); assay type: binding; details: half maximum of the 260 nm absorption v. temperature curve
Protocol: Preferably, stability of oligonucleotide clamp/target polynucleotide complexes are determined by way of melting, or strand dissociation, curves. The temperature of fifty percent strand dissociation is taken as the melting temperature, Tm, which, in turn, provides a convenient measure of stability. Tm measurements are typically carried out in a saline solution at neutral pH with target and clamp concentrations at between about 1.0-2.0 μM. Typical conditions are as follows: 150 mM NaCl and 10 mM MgCl2 in a 10 mM sodium phosphate buffer (pH 7.0) or in a 10 mM Tris-HCl buffer (pH 7.0); or like conditions. Data for melting curves are accumulated by heating a sample of the oligonucleotide clamp/target polynucleotide complex from room temperature to about 85°-90° C. As the temperature of the sample increases, absorbance of 260 nm light is monitored at 1° C. intervals, e.g. using a Cary (Australia) model 1E or a Hewlett-Packard (Palo Alto, Calif.) model HP 8459 UV/VIS spectrophotometer and model HP 89100A temperature controller, or like instruments.
The oligonucleotides and oligonucleotide clamps listed in the Table I below were synthesized in accordance with Example 1 for specific binding to the following single stranded or double stranded target polynucleotides:
The melting temperature of the following compounds were determined by computing the half maximum of the 260 nm absorption v. temperature curve, as described above: DL015:39.0° C.; DL014: 58° C.; DL013: 68.0° C.; DL021: 67.5° C.; DL022: 67.5° C.; and control (two unconnected oligonucleotides without binding moieties having sequences: 3'-TTTTCTTTTCCCCCCT-5' and 5'-TTTTC^Me TTTT(C^Me)6-3'): 32.0° C.

[2] = system: HIV (infected ATH8 cells); test: ATH8 cell assay: inhibition of the cytopathic (lytic) effects of HIV infection on ATH8 cells; assay type: cell-based; details: 2 μM and 8 μM
Protocol: (§1) Each of the compounds of Table I were tested in an ATH8 cell assay to assess the inhibition of the cytopathic effects of HIV infection on the ATH8 cells. The ATH8 assay is described in the following reference: Matsukura, pages 285-304 in Antisense RNA and DNA (Wiley-Liss, New York, 1992).
(§2) The cytopathic effect examined in the assay was the lytic effect of HIV and/or drug on the ATH8 cells. A measure of the degree of viral activity is the degree to which cells are lysed at the end of a given time period in culture. Protection against lysis is measured by the size of pellet formed after cells are harvested from culture and centrifuged, as described in the references cited above.
(§3) Curves 1 and 2 illustrate results from positive and negative controls, i.e. curve 1 illustrates the results for uninfected ATH8 cells without drug (negative control) and curve 2 illustrates the results for infected ATH8 cells without drug (positive control). Curves 3 and 4 illustrate results from cultures containing 8 μM of oligonucleotide clamp in infected and uninfected ATH8 cells, respectively. Curves 5 and 6 illustrate results from cultures containing 2 μM of oligonucleotide clamp in infected and uninfected ATH8 cells, respectively.

[3] = system: ATH8 cells; test: Toxicity to ATH8 cells in the ATH8 cell assay; assay type: cell-based; details: 2 μM and 8 μM
Protocol: as §1, §2, §3

| Substance | melting temperature [1] | change in pellet size versus time (FIG. 3), effect in words [2] | toxicity (FIG. 3), in words [3] |
| --- | --- | --- | --- |
| 5'-Chol-CACTTTTCTTTTGGGGGGTCACACTCCCCCCTTTTCTTTTAC-Chol [DL013] | 68.0 °C | – | – |
| 5'-CACTTTTCTTTTGGGGGGTCACACTCCCCCCTTTTCTTTTAC (chemistry not given here) [DL015] | 39.0 °C | – | – |
| 5'-CACTTTTCTTTTGGGGGGTCACACTCCCCCCTTTTCTTTTAC-Chol [DL014] | 58 °C | clear and positive effect at both concentrations | without toxicity |
| 5'-Chol-CACTTTTCTTTTCCCCCCTCACACACTCCCCCCTTTTCTTTTAC-Chol [DL022] | 67.5 °C | – | – |
| 5'-Chol-TTTTCTTTTCACACTTTTCTTTTGGGGGGTCACACTCCCCCC-Chol [DL021] | 67.5 °C | – | – |
